Literature values in article PMC2229313 (The Journal of General Physiology, 1996).

Test system: IFM/QQQ mutant Na channel
Conditions: cytoplasmic application; ref Eaholtz et al., 1994

KIQMK
effect on kinetics of IFM/QQQ mutant Na currents: fails to affect the kinetics of the inactivation-impaired Na channel
